Assay results reported in the supplement of paper PMC10307832.

How the values were obtained:
Assay in all cases: relative viability (nuclei count vs DMSO), 5 days (fraction); higher = more cells survive
Obatoclax + Pemetrexed = compound: COC1=CC(c2cc3ccccc3[nH]2)=N/C1=C\c1[nH]c(C)cc1C [Obatoclax] + Nc1nc2[nH]cc(CCc3ccc(C(=O)N[C@@H](CCC(=O)O)C(=O)O)cc3)c2c(=O)[nH]1 [Pemetrexed] (partner 0.2 µM)
In short: (§1)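 One day after seeding in 1536-well plates, lung cancer cell lines were dosed by pin tool. Dosing was either single-drug or a fixed anchor-drug dose plus five library-drug doses (not always all listed) in √10 steps. After 5 days, nuclei were stained in one fix-and-stain step and counted on 4× images, and relative viability is the nuclei count of treated wells over that of vehicle wells, given as the median of duplicate plates.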

Bortezomib + Pictilisib = compound: CC(C)C[C@H](NC(=O)[C@H](Cc1ccccc1)NC(=O)c1cnccn1)B(O)O [Bortezomib] + CS(=O)(=O)N1CCN(Cc2cc3nc(-c4cccc5[nH]ncc45)nc(N4CCOCC4)c3s2)CC1 [Pictilisib] (partner 1 µM)
In short: as §1

Obatoclax + Pictilisib = compound: COC1=CC(c2cc3ccccc3[nH]2)=N/C1=C\c1[nH]c(C)cc1C [Obatoclax] + CS(=O)(=O)N1CCN(Cc2cc3nc(-c4cccc5[nH]ncc45)nc(N4CCOCC4)c3s2)CC1 [Pictilisib] (partner 1 µM)
In short: as §1

[1] = compound: CC1=CC(=NN1)NC2=CC(=NC(=N2)/C=C/C3=CC=CC=C3)N4CCN(CC4)C + Nc1ncn([C@H]2C[C@H](O)[C@@H](CO)O2)c(=O)n1 [Decitabine] (partner 2 µM)
In short: as §1

Cell Line | relative viability (Obatoclax + Pemetrexed; first compound 0.01 µM) | relative viability (Obatoclax + Pemetrexed; first compound 0.03162 µM) | relative viability (Obatoclax + Pemetrexed; first compound 0.1 µM) | relative viability (Obatoclax + Pemetrexed; first compound 0.3162 µM) | relative viability (Obatoclax + Pemetrexed; first compound 1 µM) | relative viability (Bortezomib + Pictilisib; first compound 0.0002 µM) | relative viability (Bortezomib + Pictilisib; first compound 0.000632 µM) | relative viability (Bortezomib + Pictilisib; first compound 0.002 µM) | relative viability (Bortezomib + Pictilisib; first compound 0.006325 µM) | relative viability (Bortezomib + Pictilisib; first compound 0.02 µM) | relative viability (Obatoclax + Pictilisib; first compound 0.01 µM) | relative viability (Obatoclax + Pictilisib; first compound 0.03162 µM) | relative viability (Obatoclax + Pictilisib; first compound 0.1 µM) | relative viability (Obatoclax + Pictilisib; first compound 1 µM) | relative viability ([1]; first compound 0.08 µM) | relative viability ([1]; first compound 0.253 µM) | relative viability ([1]; first compound 0.8 µM) | relative viability ([1]; first compound 2.53 µM) | relative viability ([1]; first compound 8 µM) | relative viability (Obatoclax + Pictilisib; first compound 0.3162 µM)
NCI-H661 | 0.883 | 0.975 | 0.933 | 0.874 | 0.848 | 0.355 | 0.328 | 0.435 | 0.335 | 0.225 | 0.392 | 0.363 | 0.33 | 0.451 | 0.551 | 0.529 | 0.524 | 0.302 | 0.249 | 
NCI-H838 | 0.237 | 0.247 | 0.233 | 0.223 | 0.198 | 0.425 | 0.499 | 0.556 | 0.158 | 0.128 | 0.52 | 0.508 | 0.421 | 0.247 | 0.487 | 0.416 | 0.384 | 0.208 | 0.141 | 0.35
NCI-H1355 | 1.05 | 0.994 | 1.06 | 1 | 0.966 | 0.376 | 0.396 | 0.497 | 0.202 | 0.136 | 0.405 | 0.412 | 0.406 | 0.327 | 0.305 | 0.346 | 0.351 | 0.356 | 0.201 | 0.384
NCI-H1395 | 0.84 | 0.781 | 0.827 | 0.711 | 0.657 | 0.566 | 0.58 | 0.531 | 0.445 | 0.294 | 0.815 | 0.488 | 0.485 | 0.519 | 0.7 | 0.771 | 0.708 | 0.514 | 0.291 | 0.811
NCI-H1437 | 0.305 | 0.344 | 0.324 | 0.307 | 0.319 | 0.41 | 0.512 | 0.434 | 0.0867 | 0.0795 | 0.374 | 0.436 | 0.495 | 0.378 | 0.523 | 0.583 | 0.555 | 0.499 | 0.255 | 0.452
NCI-H1650 | 0.397 | 0.356 | 0.361 | 0.377 | 0.331 | 0.24 | 0.488 | 0.17 | 0.153 | 0.15 | 0.572 | 0.749 | 0.571 | 0.315 | 0.333 | 0.454 | 0.389 | 0.297 | 0.113 | 0.412
